# Measurements as given in patent US9101671B2, “Methods and compositions related to clot binding compounds” (Sanford-Burnham Medical Research Institute, priority 2007, dated 2015).
# Where no end group is shown, it is not given here.
# Legend:
# [1] = system: MDA-MB-435 breast cancer xenografts; experiment: Tumor homing and tissue distribution of intravenously injected particles (fluorescence microscopy); assay type: in vivo, mice
# Description: CREKA-SPIO particles were intravenously injected (4 mg Fe/kg) into Balb/c nude mice bearing MDA-MB-435 human breast cancer xenograft tumors measuring 1-1.5 cm in diameter. The mice were sacrificed by perfusion 5-6 hours later and tissues were examined for CREKA-SPIO fluorescence (green). Nuclei were stained with DAPI (blue). (A) Distribution of CREKA-SPIO in tissues from MDA-MB-435 tumor mice that received 2 hours earlier an injection of PBS (A, upper panels) or Ni/DSPC/CHOL liposomes (Ni-liposomes) containing 0.2 μmol Ni in 200 μl of PBS (A, lower panels). (B) Plasma circulation half-life of CREKA-SPIO following different treatments. At least 4 time points were collected. Data were fitted to mono-exponential decay using Prizm software (GraphPad, San Diego, Calif.), and the half-life values were compared in unpaired t-test (***p<0.0001, n=10). (C) Accumulation of CREKA-SPIO nanoparticles in tumor vessels. Mice were injected and tissues collected as in panel A. Fluorescent intravascular CREKA-SPIO particles overlap with iron oxide viewed in transmitted light. Magnification: 600×. (D) Control organs of Ni-liposome/CREKA-SPIO-injected mice. Occasional spots of fluorescence are seen in the kidneys and lungs. […] Representative results from at least 3 independent experiments are shown. Magnification A and D, 200×; C, 600×.
# (§1) For intravenous injections, the animals were anesthetized with intraperitoneal Avertin, and liposomes (2 μmol DSPC) and/or nanoparticles (1-4 mg Fe/kg body weight) were injected into the tail vein. The animals were sacrificed 5-24 h post-injection by cardiac perfusion with PBS under anesthesia, and organs were dissected and analyzed for particle homing. To suppress liver macrophages, mice were intravenously injected with liposomal clodronate suspension (100 μl per mouse), and the mice were used for experiments 24 hours later.
# [2] = system: human plasma clots; experiment: Nanoparticle binding to human plasma clots in vitro
# Description: (§2) Phage binding to clotted plasma proteins was determined as described (Pilch 2006). CREKA-SPIO and control SPIO were added to freshly formed plasma clots in the presence or absence of free CREKA peptide. After 10 min incubation, the clots were washed 4 times in PBS, transferred to a new tube and digested in 100 μl concentrated nitric acid. The digested material was diluted in 2 ml distilled water and the iron concentration was determined using inductively coupled plasma-optical emission spectroscopy (ICP-OES, PerkinElmer, Norwalk, Conn.).
# [3] = system: mouse plasma clots; experiment: Nanoparticle binding to mouse plasma clots in vitro
# Description: as §2
# [4] = system: tumor blood vessels; experiment: Intravital confocal microscopy of tumor blood flow; assay type: in vivo, mice; details: 4 mg/kg i.v.; Ni-liposome pre-injection; DiI-labeled erythrocytes as flow marker
# Description: (§3) Mice bearing MDA-MB-435 xenografts were injected with Ni-liposomes and CREKA-SPIO nanoparticles as described in the legend to FIG. 2. The mice were perfused 6 hours after the nanoparticle injection and tissues were collected. (A) Upper panels: Co-localization of nanoparticle fluorescence with CD31 staining in blood vessels; Middle panels: Co-localization of nanoparticle fluorescence and anti-fibrin(ogen) staining in tumor blood vessels. Inset—an image showing CREKA-SPIO distributed along fibrils in a tumor blood vessel; Lower panels: Lack of co-localization of nanoparticle fluorescence with anti-CD41 staining for platelets. (B) Intravital confocal microscopy of tumors using DiI-stained red blood cells as a marker of blood flow. The arrow points to a vessel in which stationary erythrocytes indicate obstruction of blood flow. Blood flow in the vessel above is not obstructed. Six successive frames from a 1-min movie (Movie 2 in Supplementary Material) are shown. (C) CREKA-coated liposomes co-localize with fibrin in tumor vessels. The results are representative of 3 independent experiments. Magnification: A and C, 600×, B, 200×.
# Tumor blood flow in MDA-MB 435 xenograft-bearing mice was observed by intravital microscopy. Mice were pre-injected with Ni-liposomes and 5×10^8 of DiI-labeled erythrocytes. […] Movies were recorded at 10 min intervals up to 120 min post-injection.
# [5] = Nanoparticle clearance (plasma circulation half-life); assay type: in vivo, mice
# [6] = system: platelets; experiment: Role of platelets in nanoparticle homing; assay type: in vivo, mice; details: platelet depletion with anti-CD41 monoclonal antibody
# Description: (A). Blood was drawn 5 min post-injection of 4 mg/kg of CREKA-SPIO into mice and a 50 μl aliquot was run through a magnetic column. Bound CREKA-SPIO particles were eluted form the column, concentrated on a slide, and stained with anti-CD41 antibody. Some of the particles appear to be associated with platelets. (B). A low-magnification image (40×) showing CREKA-SPIO homing and clot formation in a tumor from a platelet-depleted mouse. Platelet depletion was accomplished by treating mice with 0.1 mg of an anti-CD41 monoclonal antibody as described (Van der Heyde and Gramaglia (2005)). The mice subsequently received Ni-liposomes/CREKA-SPIO as described in the legend of FIG. 2.
# [7] = system: MDA-MB-435 human breast cancer xenografts; experiment: Tumor magnetization by SQUID magnetometer; assay type: in vivo, mice
# Description: Mice bearing MDA-MB-435 human breast cancer xenografts were intravenously injected with PBS or a bolus of 800 U/kg of heparin followed 120 min later by Ni-liposomes (or PBS) and CREKA-SPIO (or control nanoparticles). The mice received additional heparin by intraperitoneal injections (a total of 1000 U/kg) or PBS throughout the experiment. (A) Tumors were removed 6 hours after the nanoparticle injection, and magnetic signal in the tumor after different treatments was determined with SQUID. Aminated dextran SPIO served as a particle control (control SPIO). […] The magnetization values were normalized to dry weight of the tissue. Results from 3 experiments are shown. (B) Quantification of heparin effect on clotting in blood vessels. Mice were pretreated with PBS (white bars) or heparin (black bars) as described above, followed by Ni liposomes/CREKA-SPIO nanoparticles. Three sections from two tumors representing each treatment were stained with anti-CD31 for blood vessels, and the percentage of vessels positive for fluorescence and fluorescent clots was determined. […] (C) A representative example of the appearance of CREKA-SPIO particles in tumor vessels of mice treated with heparin. (D) Near-infrared imaging of mice that received Ni-liposomes followed by Cy7-labeled CREKA-SPIO with or without heparin pretreatment. […]
# [8] = system: tumor vessels; experiment: Nanoparticle-induced blood clotting in vessels (fibrin(ogen)/CD31 staining, microscopy); assay type: in vivo, mice
# Description: as §3
# Mice bearing MDA-MB-435 human breast cancer xenografts were intravenously injected with PBS or a bolus of 800 U/kg of heparin followed 120 min later by Ni-liposomes (or PBS) and CREKA-SPIO (or control nanoparticles). The mice received additional heparin by intraperitoneal injections (a total of 1000 U/kg) or PBS throughout the experiment. (A) Tumors were removed 6 hours after the nanoparticle injection, and magnetic signal in the tumor after different treatments was determined with SQUID. Aminated dextran SPIO served as a particle control (control SPIO). […] The magnetization values were normalized to dry weight of the tissue. Results from 3 experiments are shown. (B) Quantification of heparin effect on clotting in blood vessels. Mice were pretreated with PBS (white bars) or heparin (black bars) as described above, followed by Ni liposomes/CREKA-SPIO nanoparticles. Three sections from two tumors representing each treatment were stained with anti-CD31 for blood vessels, and the percentage of vessels positive for fluorescence and fluorescent clots was determined. […] (C) A representative example of the appearance of CREKA-SPIO particles in tumor vessels of mice treated with heparin. (D) Near-infrared imaging of mice that received Ni-liposomes followed by Cy7-labeled CREKA-SPIO with or without heparin pretreatment. The images were acquired 8 hours after the injection of the CREKA-SPIO particles using an Odyssey 2 NIR scanner (Li-COR Biosciences, Lincoln, Nebr.). The images shown are composites of 2 colors, red (700 nm channel, body and chow autofluorescence) and green (800 nm channel, Cy7). Arrows point to the tumors, arrowheads to the liver. Note the strong decrease in signal from the tumor in the heparin-pretreated mouse. A representative experiment out of 3 is shown.
# The low magnification (40×) was used to produce these images because only blood vessels in which clotting had concentrated the CREKA-SPIO fluorescence are visible at this magnification. […]
# as §1, with “To suppress liver macrophages, mice were intravenously injected with liposomal clodronate suspension (100 μl per mouse), and the mice were used for experiments 24 hours later.” left out
# [9] = after Ni-liposome pre-treatment
# [10] = intravenous injection, no decoy pretreatment
# [11] = plain liposomes as decoy particles, injected before
substance,measurement,setting,value
"CREKA-SPIO: Fluorescein-labeled CREKA coupled onto 50 nm superparamagnetic, amino dextran-coated iron oxide nanoparticles; at least 8,000 peptide molecules per particle (Fluorescein-CREKA; not fully specified; printed as fluorescein-CREKA; also: coupled to amino dextran-coated iron oxide nanoparticle)",tumor homing,[1]; Ni-liposome pretreatment 5 min or 48 h prior to injection,greatly increased the tumor homing
same,accumulation in the spleen,[1]; [9],unchanged or even enhanced
same,particles in the liver,[1]; [9],Fewer particles
same,accumulation in tumor,[1]; [10],did not accumulate effectively
same,particles in reticuloendothelial system (RES) tissues,[1]; [10],high concentration of particles
same,tumor homing,[1]; [11],prolonged the blood half-life and tumor homing
same,particles in other organs,[1]; whether Ni-liposomes were used or not,minor amounts of CREKA-SPIO particles or no particles at all
same,binding to plasma clots,[2],bound to mouse and human plasma clots
same,binding to plasma clots,[3],bound to mouse and human plasma clots
same,clot formation and blood flow in tumor blood vessels,[4],time-dependent clot formation and obstruction of blood flow
same,prolongation in particle half-life,[5]; RES macrophages in the liver depleted with liposomal clodronate,~5 fold
same,blood half-life,[5]; [11],prolonged the blood half-life
same,prolongation of half-life in the blood,[5]; pretreatment with intravenously injected Ni-liposomes,about 5 factor
same,effect of thrombocytopenia on homing to MDA-MB-435 tumors,[6],no noticeable effect
same,"greater accumulation in tumor, Ni-liposome-pretreated compared to PBS-pretreated mice","[7]; SQUID and fluorescence signal, tumors removed 6 hours after injection",about 6 fold
same,reduction of tumor accumulation of nanoparticles by heparin,"[7]; heparin injected prior to CREKA-SPIO, SQUID",more than 50%
same,tumor vessel lumens filled with fluorescent masses (occlusion),[8]; after liposome pretreatment,up to 20%
same,"intravascular clotting, effect of heparin",[8]; heparin pretreatment,essentially eliminated the intravascular clotting
same,"number of vessels with nanoparticles bound to the vessel walls, effect of heparin",[8]; heparin pretreatment,did not significantly reduce
same,colocalization of fibrin(ogen) staining and particle fluorescence in liver vessels,[8]; liver,no colocalization
same,clotting in kidneys and lungs (non-RES tissues),[8]; low magnification images,"no clotting in these tissues, with the exception of very rare clots in the kidneys"
